Measured values as given in patent publication US9730914B2, “3,5-diaminopyrazole kinase inhibitors” (Axikin Pharmaceuticals, Inc., priority 2014, dated 2017).

Tests used:
[1] = biological target: T1, kinase domain protein of RC kinase (RCK) (Homo sapiens, UniProt Q56UN5); experiment: Kinase competition binding assay (Kd, qPCR readout), RC kinase; details: Kd class, read-out: RCK Activity Level
T1 construct: made in house; host or cells: E. coli BL21-derived host (T7 phage) or HEK-293
T1 sequence (Q56UN5 1061-1324 limits assumed): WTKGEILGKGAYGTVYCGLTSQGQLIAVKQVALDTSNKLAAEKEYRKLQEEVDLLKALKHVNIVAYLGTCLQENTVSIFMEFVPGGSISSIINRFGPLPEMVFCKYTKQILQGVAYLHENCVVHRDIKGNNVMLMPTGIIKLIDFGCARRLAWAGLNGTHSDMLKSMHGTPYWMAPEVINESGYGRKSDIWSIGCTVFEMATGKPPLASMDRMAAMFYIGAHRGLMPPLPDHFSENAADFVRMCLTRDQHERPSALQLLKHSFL
Procedure: (§1) For most assays, kinase-tagged T7 phage strains were prepared in an E. coli host derived from the BL21 strain. E. coli were grown to log-phase and infected with T7 phage and incubated with shaking at 32° C. until lysis. The lysates were centrifuged and filtered to remove cell debris. The remaining kinases were produced in HEK-293 cells and subsequently tagged with DNA for quantitative PCR (qPCR) detection.
(§2) Streptavidin-coated magnetic beads were treated with biotinylated small molecule ligands for 30 minutes at room temperature to generate affinity resins for kinase assays. The liganded beads were blocked with excess biotin and washed with blocking buffer (SeaBlock (Pierce), 1% BSA, 0.05% Tween 20, 1 mM DTT) to remove unbound ligand and to reduce nonspecific binding. Binding reactions were assembled by combining kinases, liganded affinity beads, and test compounds in 1× binding buffer (20% SeaBlock, 0.17×PBS, 0.05% Tween 20, 6 mM DTT). All reactions were performed in polystyrene 96-well plates in a final volume of 0.135 mL. The assay plates were incubated at room temperature with shaking for 1 hour and the affinity beads were washed with wash buffer (1×PBS, 0.05% Tween 20). The beads were then re-suspended in elution buffer (1×PBS, 0.05% Tween 20, 0.5 μM non-biotinylated affinity ligand) and incubated at room temperature with shaking for 30 minutes. The kinase concentration in the eluates was measured by qPCR.
(§3) An 11-point 3-fold serial dilution of each test compound was prepared in 100% DMSO at 100× final test concentration and subsequently diluted to 1× in the assay (final DMSO concentration=1%). Most Kd values were determined using a compound top concentration=30,000 nM. If the initial Kd determined was <0.5 nM, (the lowest concentration tested), the measurement was repeated with a serial dilution starting at a lower top concentration. A more detailed description of this assay may be found in Fabian, M. A. et al. Nat. Biotechnol. 2005, 23, 329-336, which is incorporated herein in its entirety.
(§4) The biological results of inhibition of the kinase domain protein of RC kinase (RCK) and JAK2 and JAK3 are summarized in Tables 2 and 3, wherein A represents a Kd of <50 nM; B represents 50 nM<Kd<100 nM; C represents 100 nM<Kd<1000 nM; and D represents a Kd>1000 nM.

JAK2 = biological target: T2, JAK2 (Homo sapiens, UniProt O60674); experiment: Kinase competition binding assay (Kd, qPCR readout), JAK2; details: for Kd: Kd class, JAK2, read-out: JAK2 Activity Level; for RCK:JAK2 selectivity ratio: ratio Kd (JAK2): Kd(RCK)
T2 construct: made in house; host or cells: E. coli BL21-derived host (T7 phage) or HEK-293
Procedure: as §1, §2, §3, §4
Additionally, RCK:JAK2 selectivity, as measured by the ratio Kd (JAK2): Kd(RCK) is represented as follows: A represents Kd (JAK2): Kd (RCK)>100; B represents 10<Kd(JAK2): Kd (RCK)<100; C represents 1<Kd (JAK2): Kd (RCK)<10; and D represents Kd(JAK2): Kd (RCK)<1.

JAK3 = biological target: T3, JAK3 (Homo sapiens, UniProt P52333); experiment: Kinase competition binding assay (Kd, qPCR readout), JAK3; details: for Kd: Kd class, JAK3, read-out: JAK3 Activity Level; for RCK:JAK3 selectivity ratio: ratio Kd (JAK3): Kd (RCK)
T3 construct: made in house; host or cells: E. coli BL21-derived host (T7 phage) or HEK-293
Procedure: as §1, §2, §3, §4
Similarly, RCK:JAK3 selectivity, as measured by the ratio Kd (JAK3): Kd (RCK) is represented as follows: A represents Kd (JAK3): Kd (RCK)>100; B represents 10<Kd (JAK3): Kd (RCK)<100; C represents 1<Kd (JAK3): Kd (RCK)<10; and D represents Kd (JAK3): Kd(RCK)<1.

T2 sequence (O60674 840-1132 limits assumed): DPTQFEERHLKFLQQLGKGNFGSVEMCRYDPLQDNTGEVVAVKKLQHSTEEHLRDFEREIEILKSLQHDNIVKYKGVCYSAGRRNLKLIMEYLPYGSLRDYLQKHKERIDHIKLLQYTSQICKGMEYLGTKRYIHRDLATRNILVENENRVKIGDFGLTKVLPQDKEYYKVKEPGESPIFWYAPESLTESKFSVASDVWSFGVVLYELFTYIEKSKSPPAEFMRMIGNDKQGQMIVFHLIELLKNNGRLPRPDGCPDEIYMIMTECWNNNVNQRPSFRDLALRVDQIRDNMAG
T3 sequence (P52333 811-1124 limits assumed): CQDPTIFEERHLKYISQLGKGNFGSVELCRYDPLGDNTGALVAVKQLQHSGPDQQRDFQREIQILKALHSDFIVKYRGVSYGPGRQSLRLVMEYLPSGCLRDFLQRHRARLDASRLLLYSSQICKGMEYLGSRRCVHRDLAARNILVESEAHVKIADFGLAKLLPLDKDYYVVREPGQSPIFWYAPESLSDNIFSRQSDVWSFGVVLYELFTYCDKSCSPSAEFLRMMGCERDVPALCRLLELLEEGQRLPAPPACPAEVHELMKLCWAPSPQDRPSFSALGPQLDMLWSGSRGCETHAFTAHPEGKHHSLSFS

Row | Structure (SMILES) | Kd [1] [nM] | Kd (JAK2) [nM] | Kd (JAK3) [nM] | RCK:JAK2 selectivity ratio (JAK2) | RCK:JAK3 selectivity ratio (JAK3)
1 | Cc1cc(CNc2[nH]nc(Nc3ccc(-c4cccnc4)cc3)c2C(N)=O)cc(C)c1O [Compound 16, 5-((4-hydroxy-3,5-dimethylbenzyl)amino)-3-((4-(pyridin-3-yl)phenyl)amino)-1H-pyrazole-4-carboxamide] | 50 to 100 | > 1000 | > 1000 | B (B represents 10<Kd(JAK2): Kd (RCK)<100) | B (B represents 10<Kd (JAK3): Kd (RCK)<100)
2 | Cc1cc(CNc2[nH]nc(Nc3ccc(-c4ccccc4)cc3)c2C(N)=O)cc(C)c1O [Compound 18, 3-([1,1′-biphenyl]-4-ylamino)-5-((4-hydroxy-3,5-dimethylbenzyl)amino)-1H-pyrazole-4-carboxamide] | > 1000 | > 1000 | > 1000 | C (C represents 1<Kd (JAK2): Kd (RCK)<10) | C (C represents 1<Kd (JAK3): Kd (RCK)<10)
3 | Cc1cc(CNc2[nH]nc(Nc3ccc(-n4ccnc4)cc3)c2C(N)=O)cc(C)c1O [Compound 19, 3-((4-(1H-imidazol-1-yl)phenyl)amino)-5-((4-hydroxy-3,5-dimethylbenzyl)amino)-1H-pyrazole-4-carboxamide] | 100 to 1000 | > 1000 | > 1000 | A (A represents Kd (JAK2): Kd (RCK)>100) | A (A represents Kd (JAK3): Kd (RCK)>100)
4 | COc1ccc(Nc2n[nH]c(NCc3cc(C)c(O)c(C)c3)c2C(N)=O)cc1 [Compound 20, 5-((4-hydroxy-3,5-dimethylbenzyl)amino)-3-((4-methoxyphenyl)amino)-1H-pyrazole-4-carboxamide] | 100 to 1000 | > 1000 | > 1000 | C (C represents 1<Kd (JAK2): Kd (RCK)<10) | B (B represents 10<Kd (JAK3): Kd (RCK)<100)
5 | Cc1cc(CNc2[nH]nc(Nc3ccc(C(C)(C)C)cc3)c2C(N)=O)cc(C)c1O [Compound 21, 3-((4-(tert-butyl)phenyl)amino)-5-((4-hydroxy-3,5-dimethylbenzyl)amino)-1H-pyrazole-4-carboxamide] | > 1000 | > 1000 | > 1000 | C (C represents 1<Kd (JAK2): Kd (RCK)<10) | –
6 | Cc1cc(CNc2[nH]nc(Nc3ccc4[nH]ncc4c3)c2C(N)=O)cc(C)c1O [Compound 22, 3-((1H-indazol-5-yl)amino)-5-((4-hydroxy-3,5-dimethylbenzyl)amino)-1H-pyrazole-4-carboxamide] | 100 to 1000 | > 1000 | > 1000 | C (C represents 1<Kd (JAK2): Kd (RCK)<10) | B (B represents 10<Kd (JAK3): Kd (RCK)<100)
7 | Cc1cc(CNc2[nH]nc(Nc3ccc(N4CCC(F)CC4)cc3)c2C(N)=O)cc(C)c1O [Compound 25, 3-((4-(4-fluoropiperidin-1-yl)phenyl)amino)-5-((4-hydroxy-3,5-dimethylbenzyl)amino)-1H-pyrazole-4-carboxamide] | 100 to 1000 | > 1000 | > 1000 | C (C represents 1<Kd (JAK2): Kd (RCK)<10) | B (B represents 10<Kd (JAK3): Kd (RCK)<100)
8 | Cc1cc(CNc2[nH]nc(Nc3ccc(N4C[C@@H](C)O[C@@H](C)C4)nc3)c2C(N)=O)cc(C)c1O [Compound 26] | 100 to 1000 | > 1000 | > 1000 | B (B represents 10<Kd(JAK2): Kd (RCK)<100) | B (B represents 10<Kd (JAK3): Kd (RCK)<100)
9 | Cc1cc(CNc2[nH]nc(Nc3ccc(N4CCCCC4)cc3)c2C(N)=O)cc(C)c1O [Compound 27, 5-((4-hydroxy-3,5-dimethylbenzyl)amino)-3-((4-(piperidin-1-yl)phenyl)amino)-1H-pyrazole-4-carboxamide] | 100 to 1000 | > 1000 | > 1000 | B (B represents 10<Kd(JAK2): Kd (RCK)<100) | B (B represents 10<Kd (JAK3): Kd (RCK)<100)
10 | Cc1cc(Nc2n[nH]c(NCc3cc(C)c(O)c(C)c3)c2C(N)=O)ccc1N1CCCCC1 [Compound 30, 5-((4-hydroxy-3,5-dimethylbenzyl)amino)-3-((3-methyl-4-(piperidin-1-yl)phenyl)amino)-1H-pyrazole-4-carboxamide] | 50 to 100 | > 1000 | > 1000 | B (B represents 10<Kd(JAK2): Kd (RCK)<100) | B (B represents 10<Kd (JAK3): Kd (RCK)<100)

Second part, led by results:

Row | Kd [1] [nM] | Kd (JAK2) [nM] | Kd (JAK3) [nM] | Structure (SMILES) | RCK:JAK2 selectivity ratio (JAK2) | RCK:JAK3 selectivity ratio (JAK3)
11 | < 50 | 100 to 1000 | 100 to 1000 | Cc1cc(CNc2[nH]nc(Nc3ccc(N4CCN(C(C)C)CC4)c(Cl)c3)c2C(N)=O)cc(C)c1O [Compound 17, 3-((3-chloro-4-(4-isopropylpiperazin-1-yl)phenyl)amino)-5-((4-hydroxy-3,5-dimethylbenzyl)amino)-1H-pyrazole-4-carboxamide] | A (A represents Kd (JAK2): Kd (RCK)>100) | A (A represents Kd (JAK3): Kd (RCK)>100)
12 | < 50 | > 1000 | > 1000 | Cc1cc(CNc2[nH]nc(Nc3ccc(N4CCC(N5CCC(C)CC5)CC4)cc3)c2C(N)=O)cc(C)c1O [Compound 23, 5-((4-hydroxy-3,5-dimethylbenzyl)amino)-3-((4-(4-methyl-[1,4′-bipiperidin]-1′-yl)phenyl)amino)-1H-pyrazole-4-carboxamide] | B (B represents 10<Kd(JAK2): Kd (RCK)<100) | B (B represents 10<Kd (JAK3): Kd (RCK)<100)
13 | < 50 | > 1000 | > 1000 | Cc1cc(CNc2[nH]nc(Nc3ccc(N4CCN(C(=O)N5CCCC5)CC4)cc3)c2C(N)=O)cc(C)c1O [Compound 24, 5-((4-hydroxy-3,5-dimethylbenzyl)amino)-3-((4-(4-(pyrrolidine-1-carbonyl)piperazin-1-yl)phenyl)amino)-1H-pyrazole-4-carboxamide] | B (B represents 10<Kd(JAK2): Kd (RCK)<100) | A (A represents Kd (JAK3): Kd (RCK)>100)
14 | < 50 | 100 to 1000 | > 1000 | Cc1cc(Nc2n[nH]c(NCc3cc(C)c(O)c(C)c3)c2C(N)=O)ccc1N1CCN(C)CC1 [Compound 29, 5-((4-hydroxy-3,5-dimethylbenzyl)amino)-3-((3-methyl-4-(4-methylpiperazin-1-yl)phenyl)amino)-1H-pyrazole-4-carboxamide] | B (B represents 10<Kd(JAK2): Kd (RCK)<100) | B (B represents 10<Kd (JAK3): Kd (RCK)<100)
15 | < 50 | > 1000 | > 1000 | Cc1cc(CNc2[nH]nc(Nc3ccc(N4CCN(Cc5ccccc5)CC4)cc3)c2C(N)=O)cc(C)c1O [Compound 31, 3-((4-(4-benzylpiperazin-1-yl)phenyl)amino)-5-((4-hydroxy-3,5-dimethylbenzyl)amino)-1H-pyrazole-4-carboxamide] | B (B represents 10<Kd(JAK2): Kd (RCK)<100) | B (B represents 10<Kd (JAK3): Kd (RCK)<100)
